Consider one compound from patent US9708305B2, “Substituted 1,2,3,4-tetrahydroisoquinoline derivatives for the treatment of hormone-dependent diseases” (UNIVERSITÉ LAVAL, priority 2013, dated 2017).

Each structure is given as a SMILES string.

In one assay the test system is Saos-2 (ER+) cells. Kind of assay: Proliferative activity on Saos-2 (ER+) cells, phenol library. In kind it is cell-based. Particulars: 1 μM (stated for reference compounds); 7 days; control 100%. The method, then:
Estrogens are known to have a beneficial effect on bones. […] The phenol derivatives 3′-EO-09 to 3′-EO-11 and 3′-EO-14 to 3′-EO-17 were tested on the osteoblast-like cell line Saos-2 to further evaluate their SERM capacity (FIG. 13A).
The osteoblast-like Saos-2 cells were maintained in culture flasks (175 cm^2 growth area, BD Falcon) at 37° C. in a 5% CO2 humidified atmosphere and grown in McCoy's 5A medium supplemented with 10% fetal bovine serum (FBS), penicillin (100 IU/mL) and streptomycin (100 μg/mL). Penicillin/streptomycin mix, L-Glutamine, normal and charcoal-stripped FBS were purchased from Wisent, Inc. (St-Bruno, QC, Canada), phenol-red free McCoy's 5A was purchased from PromoCell (Heidelberg, Germany). Chemicals tested were first dissolved in DMSO and subsequent dilutions were done in the cell culture medium. The final concentration of DMSO in the culture medium was 0.1% or less. For the proliferation assay, the […] FBS in the culture medium was replaced with 10% charcoal-stripped FBS. The cells were seeded in 96-well plates at a density of 10 000 cells/well and allowed to attach 24 h. After 24 h, the phenolic compounds diluted in culture medium were added to the wells and replaced every 2 days for 7 days of treatment. As reported above, MTS was used as an indirect colorimetric measurement of cell proliferation according to the manufacturer's instructions, except the plate were incubated 2 h instead of 4 h.

The test system of assay [1] is alkaline phosphatase (ALP) activity in Saos-2 cells. The assay can be described thus: Alkaline phosphatase (ALP) activity in Saos-2 cells. In kind it is cell-based. The method, then:
ALP is an enzyme that releases inorganic phosphate from different intracellular substrates such as pyrophosphate and pyridoxal 5′-phosphate.^63 The inorganic phosphate is used in the formation of hydroxyapatite crystals which are then inserted in the extracellular protein scaffold to form the solid part of bone tissue.
Saos-2 cells were treated similarly as reported in the cell proliferation assay. The cells were seeded at a density of 2 000 cells/well and were treated with the inhibitors and the reference compounds for 3 days. The alkaline phosphatase (ALP) activity was measured using Sensolyte® pNPP Alkaline Phosphatase Assay Kit *Colorimetric* (AnaSpec, Fremont, Calif.) following the manufacturer's protocol. Briefly, after the 3 days of treatment, the cells were washed twice with washing buffer (provided with the kit) and lysed with 0.2% Triton X-100. The cell lysates were centrifuged and the supernatants were used to determine the ALP activity. The supernatants were deposed in a 96-well plate and incubated 30 min with a p-nitrophenyl phosphate solution (provided with the kit). The absorbance at 405 nm was measured with a Thermo max microplate reader (Molecular Devices, Sunnyvale, Calif.). The control (culture media+DMSO) is set to 100% of alkaline phosphatase activity.

The next assay has as its target T1, steroid sulfatase (STS) (Homo sapiens, UniProt P08842).
T1 construct: expressed in transfected cells; host or cells: HEK-293 cells stably transfected with STS (G418 selection), obtained from Dr. Van Luu-The; used as freeze-thaw homogenate
T1 sequence (P08842 22-583): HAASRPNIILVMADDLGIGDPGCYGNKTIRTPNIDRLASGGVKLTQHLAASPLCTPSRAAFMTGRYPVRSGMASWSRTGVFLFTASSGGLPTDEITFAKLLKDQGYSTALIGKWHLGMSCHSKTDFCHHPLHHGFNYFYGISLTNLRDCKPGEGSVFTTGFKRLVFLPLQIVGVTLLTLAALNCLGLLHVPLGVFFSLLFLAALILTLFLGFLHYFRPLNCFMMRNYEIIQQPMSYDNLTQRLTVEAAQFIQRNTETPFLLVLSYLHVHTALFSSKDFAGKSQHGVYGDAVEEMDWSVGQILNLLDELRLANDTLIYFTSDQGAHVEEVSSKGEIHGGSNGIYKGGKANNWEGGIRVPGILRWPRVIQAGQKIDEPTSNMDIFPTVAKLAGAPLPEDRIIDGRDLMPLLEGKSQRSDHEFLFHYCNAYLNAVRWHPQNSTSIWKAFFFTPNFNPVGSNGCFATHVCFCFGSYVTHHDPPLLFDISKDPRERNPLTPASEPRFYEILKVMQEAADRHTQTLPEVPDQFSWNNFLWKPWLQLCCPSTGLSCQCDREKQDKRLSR
Kind of assay: Steroid sulfatase (STS) inhibition, [3H]-E1S to [3H]-E1, homogenate of transfected HEK-293 cells. In kind it is biochemical. Particulars: transformation of E1S into E1 in homogenate of HEK-293 cells transfected with STS; read-out: Steroid Sulfatase Inhibition IC50. The method, then: To test STS inhibition, we used homogenated HEK-293 cells overexpressing STS and evaluated the capacity of our compounds to inhibit the conversion of [^3H]-E1S into [^3H]-E1. […] This is outlined in FIG. 5.
An enzymatic assay previously described was used for the inhibition of the transformation of estrone sulfate (E1S) to estrone (E1) by STS.^72 Briefly, the transfected HEK-293 cells were homogenized by repeated (5 times) cycles of freezing (−80° C.) and thawing on ice (4° C.). The homogenates were then incubated for 2 h at 37° C. (shaking water bath) with or without inhibitors (0.01 μM-1 μM) in presence of [^3H]-E1S (9 nM), adjusted to 1 μM with E1S, in a Tris-acetate buffer (pH 7.4) containing 5 mM EDTA and 10% glycerol. After the incubation, 1 mL of xylene was added to each tube and the solutions were then centrifuged at 3000 rpm for 20 min to separate the organic ([^3H]-E1) and aqueous ([^3H]-E1S) phases. Once 500 μL of each phase was added to 10 mL of Biodegradable Counting Scintillant, the radioactivity of samples was recorded using a Wallac 1411 Liquid Scintillation Counter. The percentage of inhibition was determined by comparison with the control (buffer+homogenate+[^3H]-E1S) which was set to 0% of inhibition. IC50 value was obtained using GraphPad Prism 5 (GraphPad Software, La Jolla, Calif.).

The test system of a further assay is T-47D cells. Kind of assay: T-47D cell proliferation in presence of E2 (antiestrogenicity). Type of assay: cell-based. As to conditions: Homo sapiens, T47D; read-out: Breast cancer cells T-47D (ER+) Antagonist activity (%). The method, then:
CellTitter 96® Aqueous One Solution Cell Proliferation Assay was used as an indirect colorimetric measurement of cell proliferation according to the manufacturer's instructions. Briefly, after the treatments, 20 μL of MTS solution was added to each well (100 μL) of the plates and incubated at 37° C. for 2 h (Saos-2) or 4 h (T-47D). The absorbance at 490 nm was then measured with a Thermo max microplate reader (Molecular Devices, Sunnyvale, Calif.). The control (culture media+DMSO) is set to 100% of cell proliferation.
The cells were plated in 96-well plates at a density of 3 000 cells/well and allowed to attach for 48 h. After this pre-incubation, the inhibitors and the reference compounds diluted in fresh culture media were added to the wells and replaced every 2 days for 7 days of treatment.

As for `C[C@]12CC[C@@H]3c4ccc(O)cc4CC[C@H]3[C@@H]1CC[C@@H]2O` [E2, 17β-estradiol, reference compound], the “proliferation of Saos-2 cells” value in the assay with Saos-2 (ER+) cells was 144%. Moreover, the “Bone cells Saos-2 (ER+) SERM effect Alkaline phosphatase activity (%)” value in assay [1] (0.1 nM) was 100%. Besides, in assay [1] (0.1 nM compound, antagonists 1 μM, 3 days), the “stimulation of ALP activity in presence of ICI-164,384 or MPP + PHTPP” value is “completely blocked the stimulation”. For the same compound, the IC50 at steroid sulfatase (STS) is greater than 1 µM. Also, the inhibition at 1 µM with T-47D cells was 0%.
